Test: xn = mol fraction of the nth substance listed
Conditions: 100 kPa, x2 = 0.571

O=C1c2ccccc2C(=O)C1(O)O + CCCC[N+](CCCC)(CCCC)CCCC.O=S(=O)([O-])O
Conditions | electrical conductivity [S/m] | speed of sound [m/s] | viscosity [mPa·s]
293.15 K | – | 2074.6 | –
298.15 K | – | 2026.2 | –
303.15 K | – | 1974.8 | –
308.15 K | 0.0001 | 1920.7 | –
313.15 K | 0.0002 | 1859 | –
318.15 K | 0.0003 | 1802.5 | –
323.15 K | 0.0006 | 1740.4 | 48000
333.15 K | 0.0018 | 1629.2 | 15800
338.15 K | – | – | 11000

Source: a compilation of properties of binary mixtures (doi:10.1016/j.molliq.2020.112644)
